Species on record: Rattus norvegicus
Experiment: Open TG-GATES - Regimen: Single
Type: toxicity, organism-based, Sprague-Dawley
Set-up: regimen Single, gender Male, age 6 weeks
Conditions: in vivo, po, 1000 mg/kg, route gavage, dose level High; for APTT / Bas / Eos / Fbg / Hb / Ht / Lym / MCHC / MCV / Mono / Neu / PT / Plat / RBC / Ret / WBC: tissue Blood; for KIDNEY_L / KIDNEY_R / KIDNEY_TOTAL: tissue Kidney; for LIVER: tissue Liver

SMILES: CN(C)C(=N)N=C(N)N [METFORMIN]
- APTT (3 h): 16.6 s
- Bas (3 h): 0.2%
- Eos (3 h): 1%
- Fbg (3 h): 250.4 mg/dL
- Hb (3 h): 13.4 g/dL
- Ht (3 h): 40.4%
- Lym (3 h): 78.6%
- MCHC (3 h): 33.1%
- MCV (3 h): 64 fL
- Mono (3 h): 4.2%
- Neu (3 h): 15.2%
- PT (3 h): 12.2 s
- Plat (3 h): 118.4 x10_4/uL
- RBC (3 h): 631.8 x10_4/ul
- Ret (3 h): 9.7%
- WBC (3 h): 85.9 x10_2/uL
- KIDNEY_L (3 h): 0.9 g
- KIDNEY_R (3 h): 0.9 g
- KIDNEY_TOTAL (3 h): 1.8 g
- LIVER (3 h): 8.2 g
- ALP (3 h, tissue Plasma): 1303.6 IU/L
- ALT (3 h, tissue Plasma): 60.8 IU/L
- AST (3 h, tissue Plasma): 79.2 IU/L
- BUN (3 h, tissue Plasma): 8.8 mg/dL
- CRE (3 h, tissue Plasma): 0.2 mg/dL
- Ca (3 h, tissue Plasma): 11.1 mg/dL
- Cl (3 h, tissue Plasma): 106.6 meq/L
- DBIL (3 h, tissue Plasma): 0.008 mg/dL
- GLC (3 h, tissue Plasma): 149 mg/dL
- IP (3 h, tissue Plasma): 9.3 mg/dL
- K (3 h, tissue Plasma): 3.8 meq/L
- LDH (3 h, tissue Plasma): 63 IU/L
- Na (3 h, tissue Plasma): 141.4 meq/L
- PL (3 h, tissue Plasma): 130.2 mg/dL
- RALB (3 h, tissue Plasma): 2.6 g/dL
- TBIL (3 h, tissue Plasma): 0.038 mg/dL
- TG (3 h, tissue Plasma): 47 mg/dL
- TP (3 h, tissue Plasma): 5.4 g/dL
- gamma-GTP (3 h, tissue Plasma): 1 IU/L
- TERMINAL_BW (6 h): 201.2 g
- APTT (6 h): 17.8 s
- Bas (6 h): 0%
- Eos (6 h): 1%
- Fbg (6 h): 259.6 mg/dL
- Hb (6 h): 13 g/dL
- Ht (6 h): 39%
- Lym (6 h): 72.4%
- MCHC (6 h): 33.2%
- MCV (6 h): 64.7 fL
- Mono (6 h): 3.4%
- Neu (6 h): 22.4%
- PT (6 h): 12.3 s
- Plat (6 h): 118.4 x10_4/uL
- RBC (6 h): 602.6 x10_4/ul
- Ret (6 h): 9.9%
- WBC (6 h): 87.3 x10_2/uL
- KIDNEY_L (6 h): 0.8 g
- KIDNEY_R (6 h): 0.8 g
- KIDNEY_TOTAL (6 h): 1.7 g
- LIVER (6 h): 7.3 g
- ALP (6 h, tissue Plasma): 996 IU/L
- ALT (6 h, tissue Plasma): 104.2 IU/L
- AST (6 h, tissue Plasma): 88.4 IU/L
- BUN (6 h, tissue Plasma): 9.2 mg/dL
- CRE (6 h, tissue Plasma): 0.1 mg/dL
- Ca (6 h, tissue Plasma): 11.1 mg/dL
- Cl (6 h, tissue Plasma): 106.2 meq/L
- DBIL (6 h, tissue Plasma): 0.004 mg/dL
- GLC (6 h, tissue Plasma): 137 mg/dL
- IP (6 h, tissue Plasma): 10 mg/dL
- K (6 h, tissue Plasma): 3.7 meq/L
- LDH (6 h, tissue Plasma): 52 IU/L
- Na (6 h, tissue Plasma): 140.8 meq/L
- PL (6 h, tissue Plasma): 143.4 mg/dL
- RALB (6 h, tissue Plasma): 2.5 g/dL
- TBIL (6 h, tissue Plasma): 0.05 mg/dL
- TC (6 h, tissue Plasma): 86.2 mg/dL
- TG (6 h, tissue Plasma): 20.6 mg/dL
- TP (6 h, tissue Plasma): 5.2 g/dL
- gamma-GTP (6 h, tissue Plasma): 1 IU/L
- TERMINAL_BW (9 h): 199.9 g
- APTT (9 h): 16.4 s
- Bas (9 h): 0.2%
- Eos (9 h): 1%
- Fbg (9 h): 251.6 mg/dL
- Hb (9 h): 13 g/dL
- Ht (9 h): 38.9%
- Lym (9 h): 77%
- MCHC (9 h): 33.2%
- MCV (9 h): 65.9 fL
- Mono (9 h): 3%
- Neu (9 h): 18.6%
- PT (9 h): 12.5 s
- Plat (9 h): 112.8 x10_4/uL
- RBC (9 h): 591.6 x10_4/ul
- Ret (9 h): 10.3%
- WBC (9 h): 89.9 x10_2/uL
- KIDNEY_L (9 h): 0.8 g
- KIDNEY_R (9 h): 0.8 g
- KIDNEY_TOTAL (9 h): 1.7 g
- LIVER (9 h): 6.8 g
- ALP (9 h, tissue Plasma): 1282.4 IU/L
- ALT (9 h, tissue Plasma): 84.4 IU/L
- AST (9 h, tissue Plasma): 83.2 IU/L
- BUN (9 h, tissue Plasma): 10 mg/dL
- CRE (9 h, tissue Plasma): 0.1 mg/dL
- Ca (9 h, tissue Plasma): 10.9 mg/dL
- Cl (9 h, tissue Plasma): 107.4 meq/L
- DBIL (9 h, tissue Plasma): 0.008 mg/dL
- GLC (9 h, tissue Plasma): 113.8 mg/dL
- IP (9 h, tissue Plasma): 10.6 mg/dL
- K (9 h, tissue Plasma): 3.7 meq/L
- LDH (9 h, tissue Plasma): 46 IU/L
- Na (9 h, tissue Plasma): 142.2 meq/L
- PL (9 h, tissue Plasma): 138.6 mg/dL
- RALB (9 h, tissue Plasma): 2.5 g/dL
- TBIL (9 h, tissue Plasma): 0.042 mg/dL
- TG (9 h, tissue Plasma): 20.6 mg/dL
- TP (9 h, tissue Plasma): 5.1 g/dL
- gamma-GTP (9 h, tissue Plasma): 1.2 IU/L
- TERMINAL_BW (24 h): 202.6 g
- APTT (24 h): 15.2 s
- Bas (24 h): 0%
- Eos (24 h): 1%
- Fbg (24 h): 244.6 mg/dL
- Hb (24 h): 12.8 g/dL
- Ht (24 h): 38.3%
- Lym (24 h): 76.2%
- MCHC (24 h): 33.5%
- MCV (24 h): 64.5 fL
- Mono (24 h): 3.6%
- Neu (24 h): 18.6%
- PT (24 h): 12.6 s
- Plat (24 h): 114.2 x10_4/uL
- RBC (24 h): 593.4 x10_4/ul
- Ret (24 h): 9.4%
- WBC (24 h): 98.2 x10_2/uL
- KIDNEY_L (24 h): 0.9 g
- KIDNEY_R (24 h): 0.9 g
- KIDNEY_TOTAL (24 h): 1.8 g
- LIVER (24 h): 8.8 g
- ALP (24 h, tissue Plasma): 1502.2 IU/L
- ALT (24 h, tissue Plasma): 42.6 IU/L
- AST (24 h, tissue Plasma): 74.6 IU/L
- BUN (24 h, tissue Plasma): 15.4 mg/dL
- CRE (24 h, tissue Plasma): 0.2 mg/dL
- Ca (24 h, tissue Plasma): 11.3 mg/dL
- Cl (24 h, tissue Plasma): 104.2 meq/L
- DBIL (24 h, tissue Plasma): 0.012 mg/dL
- GLC (24 h, tissue Plasma): 182.4 mg/dL
- IP (24 h, tissue Plasma): 8.8 mg/dL
- K (24 h, tissue Plasma): 4.3 meq/L
- LDH (24 h, tissue Plasma): 57 IU/L
- Na (24 h, tissue Plasma): 140.8 meq/L
- PL (24 h, tissue Plasma): 135.4 mg/dL
- RALB (24 h, tissue Plasma): 2.5 g/dL
- TBIL (24 h, tissue Plasma): 0.038 mg/dL
- TG (24 h, tissue Plasma): 53.2 mg/dL
- TP (24 h, tissue Plasma): 5.4 g/dL
- gamma-GTP (24 h, tissue Plasma): 1 IU/L

Reference: ChEMBL document CHEMBL3885861, “Open TG-GATES”
